“And” between values parts separate entries of the source, which are not always exact repeats. Identical values can stand only once. Toxic doses and inconclusive results are not listed.
System: BDF1 mice, P388 leukemia ip, median survival T/C
Experiment: NCI In Vivo Anticancer Drug Screen. Data for tumor model P388 Leukemia (intraperitoneal) in B6D2F1 (BDF1) mice
Settings: endpoint: median survival time, higher = longer survival
Method in brief: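 Steps: implant the tumour, treat one group with compound and another with vehicle, record survival, then divide treated by control.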

[1] = dose: 50.0 mg/kg/injection, schedule: Q01DX009 (ip), vehicle: saline with Tween-80
[2] = dose: 100.0 mg/kg/injection, schedule: Q01DX009 (ip), vehicle: saline with Tween-80
[3] = dose: 200.0 mg/kg/injection, schedule: Q01DX009 (ip), vehicle: saline with Tween-80
[4] = dose: 400.0 mg/kg/injection, schedule: Q01DX009 (ip), vehicle: saline with Tween-80
[5] = dose: 25.0 mg/kg/injection, schedule: Q01DX009 (ip), vehicle: saline with Tween-80

With `F` the T/C (dose: 0.25 mg/kg/injection, schedule: Q01DX009 (ip), vehicle: water) was 113 % of control, the T/C (dose: 0.5 mg/kg/injection, schedule: Q01DX009 (ip), vehicle: water) was 95 % of control and the T/C (dose: 0.62 mg/kg/injection, schedule: Q01DX009 (ip), vehicle: water) was 86 % of control. For the same compound, the T/C (dose: 1.25 mg/kg/injection, schedule: Q01DX009 (ip), vehicle: water) was 100 % of control, the T/C (dose: 2.5 mg/kg/injection, schedule: Q01DX009 (ip), vehicle: water) was 95 % of control and the T/C (dose: 5.0 mg/kg/injection, schedule: Q01DX009 (ip), vehicle: water) was 100 % of control. For the same compound, the T/C (dose: 6.25 mg/kg/injection, schedule: Q01DX009 (ip), vehicle: water) was 100 % of control, the T/C (dose: 6.25 mg/kg/injection, schedule: Q04DX003 (ip), vehicle: saline) was 100 % of control and the T/C (dose: 12.5 mg/kg/injection, schedule: Q01DX009 (ip), vehicle: saline) was 100 % of control. For the same compound, the T/C (dose: 12.5 mg/kg/injection, schedule: Q01DX009 (ip), vehicle: water) was 100 % of control, the T/C (dose: 12.5 mg/kg/injection, schedule: Q04DX003 (ip), vehicle: saline) was 100 % of control and the T/C (dose: 25.0 mg/kg/injection, schedule: Q01DX009 (ip), vehicle: saline) was 100 % of control. The T/C (dose: 25.0 mg/kg/injection, schedule: Q01DX009 (ip), vehicle: water) was 95 % of control, the T/C (dose: 25.0 mg/kg/injection, schedule: Q04DX003 (ip), vehicle: saline) was 100 % of control and the T/C (dose: 33.0 mg/kg/injection, schedule: Q04DX003 (ip), vehicle: saline) was 104 % of control. For the same compound, the T/C (dose: 50.0 mg/kg/injection, schedule: Q04DX003 (ip), vehicle: saline) was 95 % of control.

For `Cc1ccc(-c2nc3cc(Cl)ccc3c(=O)o2)cc1`, the T/C [1] was 110 % of control, the T/C (dose: 75.0 mg/kg/injection, schedule: Q01DX009 (ip), vehicle: saline with Tween-80) was 104 % of control and the T/C [2] was 100 % of control. For the same compound, the T/C (dose: 100.0 mg/kg/injection, schedule: Q04DX003 (ip), vehicle: saline with Tween-80) was 109 % of control, the T/C (dose: 150.0 mg/kg/injection, schedule: Q01DX009 (ip), vehicle: saline with Tween-80) was 109 % of control and the T/C [3] was 120 % of control. For the same compound, the T/C (dose: 200.0 mg/kg/injection, schedule: Q04DX003 (ip), vehicle: saline with Tween-80) was 109 % of control and the T/C (dose: 300.0 mg/kg/injection, schedule: Q01DX009 (ip), vehicle: saline with Tween-80) was 95 % of control.

`Cc1ccc(C(=O)N(N)C2CCCCC2)cc1` was tested, and the T/C [1] was 92 % of control.

With `COc1cc2c(c(OC)c1OC)-c1ccc(O)cc1[C@@H](NC(C)=O)CC2` the T/C (dose: 2.5 mg/kg/injection, schedule: Q01DX010 (ip), vehicle: water) was 86 % of control, the T/C (dose: 5.0 mg/kg/injection, schedule: Q01DX010 (ip), vehicle: water) was 118 % of control and the T/C (dose: 10.0 mg/kg/injection, schedule: Q01DX010 (ip), vehicle: water) was 109 % of control.

For `COc1cc(O)c(Cc2ccccc2O)c(O)c1C(=O)CCc1ccccc1`, the T/C (dose: 0.5 mg/kg/injection, schedule: Q01DX009 (ip), vehicle: alcohol) was 100 % of control, the T/C (dose: 2.0 mg/kg/injection, schedule: Q01DX009 (ip), vehicle: alcohol) was 105 % of control and the T/C (dose: 4.0 mg/kg/injection, schedule: Q01DX009 (ip), vehicle: alcohol) was 97 % of control. The T/C (dose: 5.9 mg/kg/injection, schedule: Q01DX009 (ip), vehicle: alcohol) was 119 % of control and the T/C (dose: 9.0 mg/kg/injection, schedule: Q01DX009 (ip), vehicle: alcohol) was 101 % of control.

With `CN1CCC2(CC1)c1ccccc1-c1ccccc12` the T/C [1] was 109 % of control and the T/C [2] was 100 % of control.

With `CCCCCCCCCCCCCCCCS(=O)(=O)N/N=C/C(=O)O` the T/C (dose: 12.5 mg/kg/injection, schedule: Q01DX009 (ip), vehicle: other) was 116 % of control.

For `Nc1ncc(CNc2ccc(C(=O)NC(CCC(=O)O)C(=O)O)cc2)c(N)n1` (stereo unspecified), the T/C (dose: 50.0 mg/kg/injection, schedule: Q01DX009 (ip), vehicle: Klucel (hydroxypropylcellulose) (HPC)) was 89 % of control and 115 % of control and the T/C (dose: 200.0 mg/kg/injection, schedule: Q01DX009 (ip), vehicle: Klucel (hydroxypropylcellulose) (HPC)) was 150 % of control.

For `Clc1cccc(NC2=NCCN=C(Nc3cccc(Cl)c3)SS2)c1`, the T/C [1] was 111 % of control, the T/C [2] was 102 % of control and the T/C [3] was 111 % of control.

In the case of `CN(C)c1ccc(C(N)=O)cn1`, the T/C (dose: 0.51 mg/kg/injection, schedule: Q01DX009 (ip), vehicle: saline) is reported as 95 % of control, the T/C (dose: 1.03 mg/kg/injection, schedule: Q01DX009 (ip), vehicle: saline) is reported as 115 % of control and the T/C (dose: 2.0 mg/kg/injection, schedule: Q01DX009 (ip), vehicle: saline) is reported as 90 % of control. For the same compound, the T/C (dose: 2.06 mg/kg/injection, schedule: Q01DX009 (ip), vehicle: saline) was 100 % of control, the T/C (dose: 3.0 mg/kg/injection, schedule: Q04DX003 (ip), vehicle: saline) was 100 % of control and the T/C (dose: 3.13 mg/kg/injection, schedule: Q01DX009 (ip), vehicle: saline) was 100 % of control. The T/C (dose: 4.12 mg/kg/injection, schedule: Q01DX009 (ip), vehicle: saline) was 112 % of control, the T/C (dose: 4.7 mg/kg/injection, schedule: Q01DX009 (ip), vehicle: saline) was 86 % of control and the T/C (dose: 6.0 mg/kg/injection, schedule: Q04DX003 (ip), vehicle: saline) was 100 % of control. The T/C (dose: 12.0 mg/kg/injection, schedule: Q04DX003 (ip), vehicle: saline) was 109 % of control, the T/C (dose: 17.0 mg/kg/injection, schedule: Q04DX003 (ip), vehicle: saline) was 118 % of control and the T/C (dose: 40.0 mg/kg/injection, schedule: Q04DX003 (ip), vehicle: saline) was 95 % of control.

With `C[C@@H]1CCC[C@@H](NC(=O)N(CCCl)N=O)C1` the T/C (dose: 9.37 mg/kg/injection, schedule: Q01DX009 (ip), vehicle: Klucel (hydroxypropylcellulose) (HPC)) was 151 % of control, the T/C (dose: 18.75 mg/kg/injection, schedule: Q01DX009 (ip), vehicle: Klucel (hydroxypropylcellulose) (HPC)) was 157 % of control and the T/C (dose: 37.5 mg/kg/injection, schedule: Q01DX009 (ip), vehicle: Klucel (hydroxypropylcellulose) (HPC)) was 252 % of control. The T/C (dose: 75.0 mg/kg/injection, schedule: Q01DX009 (ip), vehicle: Klucel (hydroxypropylcellulose) (HPC)) was 120 % of control.

`O=S1(=O)CC2(N3CCOCC3)CCCCC21` (stereo unspecified) was tested, and the T/C [2] was 100 % of control, the T/C [3] was 100 % of control and the T/C [4] was 112 % of control.

In the case of `NC(CC(=O)O)c1nn[nH]n1` (stereo unspecified), the T/C [2] is reported as 95 % of control, the T/C [3] is reported as 95 % of control and the T/C [4] is reported as 100 % of control.

With `CCCCCC1(C)OCC(C)O1` (stereo unspecified) the T/C [1] was 101 % of control, the T/C [2] was 106 % of control and the T/C [3] was 109 % of control.

With `CN(C)c1ccc(/C=C2\C=Cc3ccccc32)cc1Br` the T/C (dose: 25.0 mg/kg/injection, schedule: Q04DX003 (sc), vehicle: olive oil, sesame oil, peanut oil) was 95 % of control, the T/C (dose: 50.0 mg/kg/injection, schedule: Q04DX003 (sc), vehicle: olive oil, sesame oil, peanut oil) was 100 % of control and the T/C (dose: 100.0 mg/kg/injection, schedule: Q04DX003 (sc), vehicle: olive oil, sesame oil, peanut oil) was 87 % of control.

For `COc1ccc(-c2c(C#N)cnc(C)c2C)c(O)c1OC`, the T/C (dose: 0.2 mg/kg/injection, schedule: Q01DX009 (ip), vehicle: Klucel (hydroxypropylcellulose) (HPC)) was 95 % of control.

With `CN(C)N=Nc1ccc(CCCC(=O)NN)cc1` the T/C (dose: 1.56 mg/kg/injection, schedule: Q01DX009 (ip), vehicle: saline with Tween-80) was 109 % of control, the T/C (dose: 2.0 mg/kg/injection, schedule: Q01DX009 (ip), vehicle: saline with Tween-80) was 120 % of control and the T/C [5] was 92 % of control. For the same compound, the T/C (dose: 50.0 mg/kg/injection, schedule: Q04DX003 (ip), vehicle: saline sonified) was 100 % of control, the T/C [2] was 100 % of control and the T/C (dose: 100.0 mg/kg/injection, schedule: Q04DX003 (ip), vehicle: saline sonified) was 115 % of control. For the same compound, the T/C (dose: 200.0 mg/kg/injection, schedule: Q04DX003 (ip), vehicle: saline sonified) was 110 % of control.

`COC(=O)C(=NO)C(=O)OC` was tested, and the T/C (dose: 100.0 mg/kg/injection, schedule: Q01DX009 (ip), vehicle: saline) was 104 % of control, the T/C (dose: 200.0 mg/kg/injection, schedule: Q01DX009 (ip), vehicle: saline) was 96 % of control and the T/C (dose: 400.0 mg/kg/injection, schedule: Q01DX009 (ip), vehicle: saline) was 96 % of control.

For `O=C(O)C1CSC(c2ccccc2)N1` (stereo unspecified), the T/C [5] was 111 % of control, the T/C [2] was 109 % of control and the T/C [3] was 100 % of control.

With `O=Cc1[nH]c(=O)[nH]c(=O)c1Br` the T/C (dose: 50.0 mg/kg/injection, schedule: Q04DX003 (ip), vehicle: saline with Tween-80) was 112 % of control.

In the case of `CS(=O)(=O)OCCSc1nc2ccccc2n1Cc1ccccc1`, the T/C (dose: 25.0 mg/kg/injection, schedule: Q01DX001 (ip), vehicle: saline with Tween-80) is reported as 100 % of control, the T/C (dose: 50.0 mg/kg/injection, schedule: Q01DX001 (ip), vehicle: saline with Tween-80) is reported as 106 % of control and the T/C (dose: 100.0 mg/kg/injection, schedule: Q01DX001 (ip), vehicle: saline with Tween-80) is reported as 101 % of control.

For `Nc1nc(N)c2c(n1)CCC(S(=O)(=O)c1ccc3ccccc3c1)C2` (stereo unspecified), the T/C [1] was 103 % of control and 114 % of control, the T/C [2] was 122 % of control and 124 % of control and the T/C [3] was 123 % of control.

In the case of `C=CC(C#N)(C=C)C=C`, the T/C [1] is reported as 104 % of control.

— PubChem BioAssay AID328 (DTP/NCI, 2004)
